The values below come from ChEMBL document CHEMBL1135258, “Substrate spectrum of tyrocidine thioesterase probed with randomized peptide N-acetylcysteamine thioesters” (Bioorg Med Chem Lett, 2002).

Assay [1] has as its target T1, Thioesterase GrsT homolog tycF (Brevibacillus brevis) (UniProt O30412).
T1 sequence (whole entry): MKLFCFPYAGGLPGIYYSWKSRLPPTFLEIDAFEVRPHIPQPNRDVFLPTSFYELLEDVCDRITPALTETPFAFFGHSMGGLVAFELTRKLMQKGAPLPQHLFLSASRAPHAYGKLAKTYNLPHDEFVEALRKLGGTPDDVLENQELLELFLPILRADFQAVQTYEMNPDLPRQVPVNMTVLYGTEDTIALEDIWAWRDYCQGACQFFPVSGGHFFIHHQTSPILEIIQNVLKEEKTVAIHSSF
Nature of the assay: Catalytic efficiency (Kcat/Km) was determined. Set-up: unit not given here.

Assay [2] has as its target T1, Thioesterase GrsT homolog tycF (Brevibacillus brevis). Nature of the assay: Apparent kinetic constant (Kcat) for tyrocidine thioesterase amplified from Bacillus brevis (ATCC8185).

Turning to `CC(=O)NCCSC(=O)[C@H](CC(C)C)NC(=O)[C@H](CCCN)NC(=O)[C@@H](NC(=O)[C@H](Cc1ccc(O)cc1)NC(=O)[C@H](CC(N)=O)NC(=O)[C@H](CC(N)=O)NC(=O)[C@@H](Cc1ccccc1)NC(=O)[C@H](Cc1ccccc1)NC(=O)[C@@H]1CCCN1C(=O)[C@H](N)Cc1ccccc1)C(C)C`, the Ratio in assay [1] stood at 0.72. The k cat in assay [2] is 1.33 s⁻¹.
For `CSCC[C@H](NC(=O)[C@H](Cc1ccccc1)NC(=O)[C@@H]1CCCN1C(=O)[C@H](N)Cc1ccccc1)C(=O)N[C@@H](CC(N)=O)C(=O)N[C@@H](CCC(N)=O)C(=O)N[C@@H](Cc1ccc(O)cc1)C(=O)N[C@H](C(=O)N[C@@H](CCCN)C(=O)N[C@@H](CC(C)C)C(=O)SCCNC(C)=O)C(C)C` the same measures were 0.8 and 0.267 s⁻¹.
The matching figures for `CC(=O)NCCSC(=O)[C@H](CC(C)C)NC(=O)[C@H](CCCN)NC(=O)[C@@H](NC(=O)[C@H](Cc1ccc(O)cc1)NC(=O)[C@H](CCC(N)=O)NC(=O)[C@H](CC(C)C)NC(=O)[C@@H](Cc1ccccc1)NC(=O)[C@H](Cc1ccccc1)NC(=O)[C@@H]1CCCN1C(=O)[C@H](N)Cc1ccccc1)C(C)C`: 0.23 and 0.167 s⁻¹.
Consider `CC(=O)NCCSC(=O)[C@H](CC(C)C)NC(=O)[C@H](CCCN)NC(=O)[C@@H](NC(=O)[C@H](Cc1ccc(O)cc1)NC(=O)[C@H](CCC(N)=O)NC(=O)[C@H](CC(N)=O)NC(=O)[C@@H](NC(=O)[C@H](Cc1ccccc1)NC(=O)[C@@H]1CCCN1C(=O)[C@H](N)Cc1ccccc1)C(C)C)C(C)C`, for which the Ratio in assay [1] amounted to 0.19. Moreover, the k cat in assay [2] is 0.45 s⁻¹.
For `CC[C@@H](C)[C@H](NC(=O)[C@H](CC(N)=O)NC(=O)[C@@H](Cc1ccccc1)NC(=O)[C@H](Cc1ccccc1)NC(=O)[C@@H]1CCCN1C(=O)[C@H](N)Cc1ccccc1)C(=O)N[C@@H](Cc1ccc(O)cc1)C(=O)N[C@H](C(=O)N[C@@H](CCCN)C(=O)N[C@@H](CC(C)C)C(=O)SCCNC(C)=O)C(C)C` the same measures were 0.09 and 0.123 s⁻¹.
For `CC(=O)NCCSC(=O)[C@H](CC(C)C)NC(=O)[C@H](CCCN)NC(=O)[C@@H](NC(=O)[C@H](Cc1ccc(O)cc1)NC(=O)[C@H](CCC(N)=O)NC(=O)[C@H](CC(N)=O)NC(=O)[C@@H](Cc1ccccc1)NC(=O)[C@H](Cc1ccccc1)NC(=O)[C@H](CC(=O)O)NC(=O)[C@H](N)Cc1ccccc1)C(C)C` the same measures were 0.11 and 0.167 s⁻¹.
For `CC(=O)NCCSC(=O)[C@H](CC(C)C)NC(=O)[C@H](CCCN)NC(=O)[C@@H](NC(=O)[C@H](Cc1ccc(O)cc1)NC(=O)[C@H](CCC(N)=O)NC(=O)[C@H](CC(N)=O)NC(=O)[C@@H](Cc1ccccc1)NC(=O)[C@H](CC(N)=O)NC(=O)[C@@H]1CCCN1C(=O)[C@H](N)Cc1ccccc1)C(C)C` the same measures were 0.083 and 0.233 s⁻¹.
Take `CC(=O)NCCSC(=O)[C@H](CC(C)C)NC(=O)[C@H](CCCN)NC(=O)[C@@H](NC(=O)[C@H](Cc1ccc(O)cc1)NC(=O)[C@H](CCC(N)=O)NC(=O)[C@H](CC(N)=O)NC(=O)[C@H](CO)NC(=O)[C@H](Cc1ccccc1)NC(=O)[C@@H]1CCCN1C(=O)[C@H](N)Cc1ccccc1)C(C)C`: the Ratio in assay [1] was found to be 0.57. Besides, in assay [2], the k cat was 0.13 s⁻¹.
For `CC(=O)NCCSC(=O)[C@H](CC(C)C)NC(=O)[C@H](CCCN)NC(=O)[C@@H](NC(=O)[C@H](Cc1ccc(O)cc1)NC(=O)[C@H](CCC(N)=O)NC(=O)[C@H](CC(N)=O)NC(=O)[C@H](Cc1ccc(O)cc1)NC(=O)[C@H](Cc1ccccc1)NC(=O)[C@@H]1CCCN1C(=O)[C@H](N)Cc1ccccc1)C(C)C` the same measures were 0.17 and 0.183 s⁻¹.
For `CC(=O)NCCSC(=O)[C@H](CC(C)C)NC(=O)[C@H](CCCN)NC(=O)[C@H](CCCN=C(N)N)NC(=O)[C@H](Cc1ccc(O)cc1)NC(=O)[C@H](CCC(N)=O)NC(=O)[C@H](CC(N)=O)NC(=O)[C@@H](Cc1ccccc1)NC(=O)[C@H](Cc1ccccc1)NC(=O)[C@@H]1CCCN1C(=O)[C@H](N)Cc1ccccc1` the same measures were 0.28 and 0.15 s⁻¹.
For `CC(=O)NCCSC(=O)[C@H](CC(C)C)NC(=O)[C@H](CCCN)NC(=O)[C@@H](NC(=O)[C@H](Cc1ccc(O)cc1)NC(=O)[C@H](CCC(N)=O)NC(=O)[C@H](CC(N)=O)NC(=O)[C@H](CC(N)=O)NC(=O)[C@H](Cc1ccccc1)NC(=O)[C@@H]1CCCN1C(=O)[C@H](N)Cc1ccccc1)C(C)C` the same measures were 0.42 and 0.133 s⁻¹.
For `CC(=O)NCCSC(=O)[C@H](CC(C)C)NC(=O)[C@H](CCCN)NC(=O)[C@@H](NC(=O)[C@H](Cc1ccc(O)cc1)NC(=O)[C@H](CCC(N)=O)NC(=O)[C@H](CC(N)=O)NC(=O)CNC(=O)[C@H](Cc1ccccc1)NC(=O)[C@@H]1CCCN1C(=O)[C@H](N)Cc1ccccc1)C(C)C`, in assay [1], the Ratio came out at 0.36. For the same molecule, the k cat in assay [2] stood at 0.133 s⁻¹.
